Measurements as given in PMC7997937 (AMB Express, 2021).
In brackets after ≈: the same amount, converted by molar mass. Where no end group is shown, it is not given here.

Columns and labels:
[1] = test system: MRSA ATCC43300; experiment: Time-kill curves; type: cell-based, Staphylococcus aureus; conditions: 2× MIC
Protocol: The time-kill curves against MRSA ATCC43300 were assayed to evaluate the pharmacodynamics of peptides. The mid-log phase bacteria were diluted to 1×10^5 CFU/mL with fresh medium. […] Finally, the mixtures were cultured at 37 °C and 250 rpm. Samples (150 μL) were taken from each flask at 0, 0.5, 1, 2, 4, 6, 8, 10, 12 and 24 h of incubation, and antimicrobial efficiency was measured by plate colony count (Yang et al. [2019]). Treatment with peptide solvent (PBS) and vancomycin at 2× MIC were used as the negative and positive control. All tests were run in triplicate.

[2] = test system: MSSA ATCC25923; experiment: microbe, parasite or virus in culture
Protocol: (§1) The MIC values of peptides against test stains were determined by the microtiter broth dilution method. The bacteria were grown to mid-logarithmic phase and diluted to 1 × 10^5 CFU/mL. Two-fold serial dilutions of peptides were prepared with a gradient concentration of 1280, 640, 320, 160, 80, 40, 20, 10, 5, 2.5, 1.25, and 0.625 μg/mL. A total of 10 μL each serial concentration gradient peptide solutions and 90 μL bacterial suspension were added into 96-well plates. Then the plate was cultured at 37 ℃ for 16–24 h. Vancomycin was tested as control. All assays were performed in triplicate. The MIC refers to the lowest peptide concentration at which there is no visible growth of bacteria (Wiegand et al. [2008]).

[3] = test system: MRSA ATCC43300; experiment: microbe, parasite or virus in culture
Protocol: as §1

[4] = test system: MSSA ATCC6538; experiment: microbe, parasite or virus in culture
Protocol: as §1

[5] = Temperature stability (MIC read-out); type: physicochemical; conditions: MIC against MRSA ATCC43300
Protocol: (§2) The untreated peptides were used as control. […] All assays were performed in triplicate.

[6] = test system: MRSA ATCC43300; experiment: qRT-PCR of ppGpp metabolism and biofilm formation related genes; type: cell-based, Staphylococcus aureus; conditions: 4× MIC, 2 h, 16s rRNA reference
Protocol: The ppGpp metabolism and biofilm formation related genes RSH, relP, relQ, rsbU, sigB, spA, codY, agrA and icaD were chosen in this study. Primer sequences were designed and listed in Additional file 1: Table S1. The 16s rRNA was used as a housekeeping one. […] After washing twice with PBS, the total RNA was isolated. Then cDNA was obtained followed by removing genomic DNA. Finally, real-time reverse transcription-polymerase chain reaction (qRT-PCR) was conducted as previously described. The relative expression ratios were calculated as follows: n-fold transcription = 2^−△△Ct, ∆∆Ct = ∆Ct (drug-treated)[…]∆Ct (untreated), where ∆Ct represents the difference between the cycle threshold (Ct) of the gene studied and the Ct of housekeeping 16s rRNA gene (internal control). Student’s t test was used for analyzing those PCR results (Lee et al. [2013]).

[7] = test system: genomic DNA from MRSA ATCC43300; experiment: Gel retardation assay; type: binding, Staphylococcus aureus; conditions: 10 min, room temperature, 1% agarose gel
Protocol: To examine the interaction of peptides and MRSA genomic DNA, the gel migration experiment was performed. Genomic DNA was obtained by bacterial genome extraction kit. Different concentrations (0.625 to 20 μg/mL) of peptides and DNA were mixed and incubated for 10 min at room temperature. The migration of genomic DNA was analyzed by electrophoresis on a 1% agarose gel.

[8] = test system: pepsin; conditions: pepsin 3000 U/mg, pH 2.0, 10:1 w/w, 4 h, 37 °C; MIC against MRSA ATCC43300
Protocol: (§3) The pH stability of peptides was determined after 3 h incubation in 100 mM glycine-HCl buffer (pH 2.0), sodium acetate buffer (pH 4.0), sodium phosphate buffer (pH 6.0), Tris-HCl buffer (pH 8.0), or glycine-NaOH buffer (pH 10.0). Additionally, peptides were incubated in pepsin (3000 U/mg, pH 2.0) and trypsin (250 U/mg, pH 8.0) (10:1, w/w) solutions for 4 h at 37 °C, respectively. The untreated peptides were used as control. The antibacterial activity of treated peptides against MRSA ATCC43300 was determined by MIC determine assay (Yang et al. [2017]). All assays were performed in triplicate.

[9] = test system: trypsin; conditions: trypsin 250 U/mg, pH 8.0, 10:1 w/w, 4 h, 37 °C; MIC against MRSA ATCC43300
Protocol: as §3

[10] = ppGpp binding affinity by ZIC-HILIC HPLC; conditions: ppGpp 1000 μg/mL + peptide 400 μg/mL, 10 min, centrifuged, HPLC UV 260 nm; mean of triplicate; ppGpp control peak area 34904
Protocol: The temperature of the column is kept at 25 ℃. The ppGpp (TriLink BioTechnologies, USA) which diluted with mobile phase to a concentration of 1000 μg/mL, was used as a positive control. Then the ppGpp (1000 μg/mL) was incubated with peptides (400 μg/mL) for 10 min and centrifuged at 12000 rpm for 10 min. The ppGpp concentration of the samples was calculated by comparing the peak areas of the ppGpp standard.

[11] = test system: MRSA ATCC43300 biofilm; experiment: Biofilms observed by CLSM and SEM; type: cell-based, Staphylococcus aureus; conditions: 64 μg/mL, 24 h, SYTO9/PI
Protocol: In order to further explore whether the formation of MRSA ATCC43300 biofilms can be inhibited by peptides, the mid-log phase bacteria were diluted to 1 × 10^8 CFU/mL with TSB medium and seeded into 24-well plates with a glass microscope slide or silicon slice in each well. A concentration of 64 μg/mL peptides were added into plates and incubated for 24 h. Planktonic bacteria were removed by washing with PBS gently. Biofilms on glass microscope slide were stained with SYTO9 and PI according to the instruction (LIVE/DEAD BacLight Bacterial Viability Kit). After incubation for 15 min, the slides were washed with PBS and the biofilms were visualized by SP8 CLSM. Biofilm on silicon slice could be observed by SEM after immobilization, dehydration, drying and coating (Yang et al. [2019]).

[12] = type: physicochemical; conditions: for MIC at pH 2–10, folds of the normal condition: 3 h incubation in buffers pH 2.0–10.0, relative to MH medium
Protocol: as §2

[13] = test system: MRSA ATCC43300 biofilm; experiment: Inhibition of biofilm formation, crystal violet; type: cell-based, Staphylococcus aureus
Protocol: To evaluate the effect of peptides on the biofilm information, mid-logarithmic phase MRSA ATCC43300 (1×10^8 CFU/mL) was grown in tryptic soy broth (TSB) medium on 96-well plates at 37 °C […] in the presence (2–64 μg/mL) or absence of peptides (de Breij et al. [2018]; de Breij et al. [2016]). Subsequently, the planktonic bacteria were removed and biofilms were stained for 30 min with 0.1% crystal violet. After rinsing with PBS twice, the dye binding to the adherent bacterial cells was resolubilized in 95% ethanol (200 μL/well). Finally, absorbance was measured at 570 nm with a microplate reader. Fresh TSB medium was used as negative control.

[14] = test system: MRSA ATCC43300; experiment: SEM/TEM observation of treated bacteria; type: cell-based, Staphylococcus aureus; conditions: 4× MIC, 2 h, 37 °C
Protocol: The bacteria were fixed with 2.5% glutaraldehyde at 4 °C overnight. For SEM, the bacterial were then dehydrated with a series of graded ethanol solutions (20%, 50%, 70%, 85%, 95% and 100%) and dried by CO2. Gold-palladium was sputtered on samples and observed on a S4800 SEM. For TEM, bacterial were post-fixed with 1% OsO4 for 1 h and then dehydrated for 7 min each time with a graded acetone series (50%, 70%, 85%, 95% and 100%). The samples were immersed in epoxy resin and embedded in capsules containing embedding medium, polymerized at 45 °C for 3 h and at 65 °C for 24 h, respectively. Ultramicrotome was used to acquire thin sections, followed by staining with 1% uranyl acetate. Images were visualized by a Hitachi H-7650 TEM (Yang et al. [2019]).

[15] = ref de la Fuente-Nunez et al. [2014]; cited from earlier work
Source text: Antimicrobial peptides (AMPs) are kind of bioactive agents with multiple modes of action and appear as one of the most promising antimicrobial drug candidates (Hancock and Sahl [2006]). […] The antimicrobial activity of AMPs was mainly based on their positive charge and hydrophobic residues, which gave them the properties of bacterial cell membrane destruction (Mahlapuu et al. [2016]). Among them, a small synth ...

With `CN[C@H](CC(C)C)C(=O)N[C@H]1C(=O)N[C@@H](CC(N)=O)C(=O)N[C@H]2C(=O)N[C@H]3C(=O)N[C@H](C(=O)N[C@H](C(=O)O)c4cc(O)cc(O)c4-c4cc3ccc4O)[C@H](O)c3ccc(c(Cl)c3)Oc3cc2cc(c3O[C@@H]2O[C@H](CO)[C@@H](O)[C@H](O)[C@H]2O[C@H]2C[C@](C)(N)[C@H](O)[C@H](C)O2)Oc2ccc(cc2Cl)[C@H]1O` [vancomycin, reference compound] as the compound, how does the “incubation time after which bacteria rejuvenated” value [1] read?
The value was 10 h.

And the MIC ([2]; Staphylococcus aureus)?
Its MIC is 1 µg/mL (≈ 0.69 µM).

What about the MIC ([3]; Staphylococcus aureus) of the same compound?
The MIC was 1 µg/mL (≈ 0.69 µM).

What about the MIC ([4]; Staphylococcus aureus) of the same compound?
Its MIC is 1 µg/mL (≈ 0.69 µM).

Which “antibacterial activity after heat exposure” value ([5]; 20, 40, 60, 80 or 100 °C for 1 h, triplicate) does the source give for VRLRWWRRRWRR-NH2 [1018M] here?
Its value is “not changed”.

And the “transcription of AgrA gene, times upregulated” value [6]?
The value was 2.595 time.

And the “concentration inhibiting migration of genomic DNA” value [7]?
The value was 5 µg/mL.

What about the “activity after treatment with pepsase” value [8] of the same compound?
Its value is 100%.

And the “MIC after trypsin, times of the untreated peptide” value [9]?
Its value is 16-32 times.

What about the “mean ppGpp peak area after incubation with peptide” value [10] of the same compound?
The value was 14255.

And the “biofilm formation observed by CLSM” value [11]?
Its value is “completely inhibited”.

What about the “MIC at pH 2–10” value ([12]; 3 h, pH 2) of the same compound?
The value was 2–4 μg/mL.

What about the “MIC at pH 2–10, folds of the normal condition” value [12] of the same compound?
The value was 1–2 folds.

And the “decrease of percentage of biofilm” value ([13]; 64 μg/mL, 24 h, A570)?
Its value is 78.9%.

What about the “ghost bacteria (TEM)” value [14] of the same compound?
Its value is “About 10%”.

What about the MIC ([2]; ATCC25923) of the same compound?
The MIC was 2 µg/mL.

And the MIC ([3]; ATCC43300)?
The MIC was 2 µg/mL.

What about the MIC ([4]; ATCC6538) of the same compound?
Its MIC is 1 µg/mL.

For “VRLIVAVRIWRR-NH2 [IDR-1018, reference compound]”, which retained antibacterial activity ([5]; 100 °C for 1 h) is on record?
The retained antibacterial activity was 50%.

And the “concentration inhibiting migration of genomic DNA” value [7]?
The value was 1.25 µg/mL.

And the “MIC after trypsin, times of the untreated peptide” value [9]?
The value was 16-32 times.

What about the “mean ppGpp peak area after incubation with peptide” value [10] of the same compound?
The value was 19723.

And the “MBIC100 (anti-biofilm)” value [15]?
Its value is 2 to 10 µg/mL.

And the “MIC (antibacterial)” value [15]?
Its value is 8 to 256 µg/mL.

What about the “MIC at pH 2–10, folds of the normal condition” value [12] of the same compound?
Its value is 1-4 times.

And the “impact on biofilm formation” value ([13]; 2–64 μg/mL)?
The value was “nearly no impact”.
